Test results published in patent publication US20120010178A1, “METHODS AND COMPOUNDS FOR TREATMENT OF NEURODEGENERATIVE DISORDERS” (PRESIDENT AND FELLOWS OF HARVARD COLLEGE, priority 2008, published 2012).
“Also recorded” adds a separate entry of the source. Residues, ends and D or L forms follow the SMILES beside them. *: point of attachment. Cbz = O=C(OCc1ccccc1)*

Columns and labels:
SMN [1] = experiment: SMN immunofluorescence quantification (cytoplasm, nucleus, GEMs) in fibroblasts from SMA patients; assay type: cell-based, human; details: for levels of cytoplasmic and nuclear SMN (in words) / fold increase in nuclear SMN / fold increase in cytoplasmic SMN: SMA patient fibroblasts; for levels of cytoplasmic and nuclear SMN (in words): substance alone
Method: Specifically, fibroblasts from patients suffering from SMA were treated with Ionomycin (a channel modulator), Ouabain (a cardiac glycoside and channel modulator), PDGF, SAHA (an HDAC inhibitor), Lactacystin (a proteasome inhibitor) or WIN 55,212-2 (a cannabinoid receptor […] and GPCR ligand) for 72 hours. The cells were fixed with methanol/acetone and stained with Pharmingen BD antibodies, followed by 488 AlexaFluor staining. Images were obtained with 60× lens on Zeiss LSM510 META on an inverted confocal microscope.
For example, fibroblasts from patients suffering from SMA were treated with Ouabain, Digoxin or Lanatoside at a concentration of 0, 2.5 nM, 5 nM, 10 nM, 20 nM, 40 nM, 80 nM, […] for 72 hours. The cells were fixed with methanol/acetone and stained with Pharmingen BD antibodies, followed by 488 AlexaFluor staining. Images were obtained with 60× lens on Zeiss LSM510 META on an inverted confocal microscope.
An assay was established for high-content evaluation of SMN protein level in different cellular compartments after treatment with small molecules. SMN protein was visualized by immunofluorescent staining and multiple fields from each plate well were scanned by an automated confocal Opera microscope. […] For each well, the algorithm generated quantitative parameters representing number of cells, as well as SMN fluorescent intensity per cell in cytoplasm, nucleus, number and intensity of GEMs (FIG. 15). […] During the assay transfer to the robotic platform fixation with the ice cold methanol was technically limited, therefore to preserve the maximum possible window we chose to perform the screen on parental fibroblast with PFA fixation.
For fibroblast assays, human fibroblasts lines GM09677 (derived from patient with SMA type 1 disease) and GM03814 (derived from unaffected parental SMA carriers) were used (Coriell Cell Repositories). […] For secondary assays cells from GM09677 line were used.
Fibroblasts were grown in MEM media (Invitrogen) supplemented with 5% Fetal Bovine Serum (FBS, Invitrogen), 2 mM glutamine and 1% penicillin-streptomycin (100 U/ml) in a presence of 5% CO2 at 37° C. For drug treatments, cells were plated and treated 24 h later with 10 μM MG132 (Biomol International), […] Calpeptin (Biomol International), 10 mM ammonium chloride, 1 μM myristoylated PKI, or vehicle for the designated times.
(§1) Compounds were stored at appropriate temperature and dissolved accordingly to the manufacturers (Tocris, Enzo, EMD and Sigma-Aldrich) in DMSO (Sigma-Aldrich), unless stated otherwise (Monensin Na in EtOH, DMPQ in water). Growth factors and PDGF neutralizing antibodies (R&D Systems) were reconstituted with buffers recommended by the supplier. For generation of the dose curves, 1×10^3 fibroblasts were plated on to 96-well Greiner Senso plates (VWR) and treated with compounds on the second day then fixed and stained at the indicated time points. For GSK inhibitors and performing p-GSK3b(Ser9) detection, two days after plating growth media containing 5% FBS was replaced to the media with FBS reduced down to 0.5%, to starve cells for 72 hours. Addition of the GSK inhibitors was done in 5% FBS enriched media.

SMN [2] = experiment: High-content fibroblast screen for compounds that modulate SMN level; details: for SMN level in fibroblast screen (increase or decrease): human fibroblasts, 2-3 days with compound;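 as to all read-outs here: Anti-SMN immunostaining with confocal imaging of nuclear and cytoplasmic SMN and gem counts, tested at 0.1, 1 and 10 uM, fold change relative to negative control wells on each plate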
Method: Human fibroblasts were incubated for 2-3 days with compounds from annotated collections. Cells were fixed and stained with an anti-SMN antibody. Confocal imaging was used to quantify SMN fluorescence in nucleus and cytoplasm and count Gems. Data were collected and subsequently analyzed by clustering compounds by suspected mechanism of action and chemical structure.
Following optimization of assay conditions on day 0, total of 500 human fibroblasts (GM09677 line) per well were seeded in 384-well plates, on day 3 they were treated with compounds (robot CyBio) from the annotated collections and on the 5 day plates were fixed and stained (robot MAPD) with an anti-SMN antibody and secondary antibody conjugated with 448 fluorophore (FIG. 19a). Compounds from the libraries were added in duplicate at three final concentrations of 10, 1 and 0.1 uM.
SMN detection was done on the automated confocal microscope Opera PerkinElmer with separate fluorescent exposures to 488 nM laser for and a UV light source to detect nuclei stained with Hoechst 33258 with a 20× objective.
After scanning on the Opera, an XML file extraction workflow, designed with Inforsense KDE, was used to assemble the data from multiple replicate plates of each HCS experiment including the quantitative parameters described above and chemical identities, chemical concentrations and indications of which wells were used for positive and negative controls. […] The fold-induction of SMN intensity values for each well treated with a library chemical were normalized to the SMN average intensity in multiple negative control wells per plate.
Since it is not known which form of SMN increase is the most essential, hits that scored in a duplicate at least in two different parameters greater than 1.3 fold at any of the three concentrations were selected (FIG. 19d). […] Further, 220 compounds were screened in the absence of anti-SMN primary antibody with the same assay conditions, to filter out the fluorescent compounds.

SMN [3] = experiment: Inhibition of PDGF-stimulated SMN increase in fibroblasts by kinase/receptor inhibitors; assay type: cell-based, human; details: SMA patient fibroblasts, PDGF plus inhibitor or neutralizing antibody
Method: Fibroblasts from patients suffering from SMA were treated with PDGF at a concentration of 0, 0.3 ng/ml, 0.63 ng/ml, 1.25 ng/ml, 2.5 ng/ml, 5 ng/ml, 10 ng/ml or 20 ng/ml, in the absence or in the presence of 25 uM DMPQ or 25 uM AG-1296 respectively for 72 hours. The levels of both cytoplasmic and nuclear SMN were detected and quantified using the method described in Example 2.
(§2) Fibroblasts from patients suffering from SMA were either control treated or treated with PDGF at a concentration of 0, 0.63 ng/ml, 1.25 ng/ml, 2.5 ng/ml, 5 ng/ml, 10 ng/ml or 20 ng/ml, in the absence or in the presence of 50 uM LY294002 or 2 uM P1-103 respectively for 72 hours. The levels of both cytoplasmic and nuclear SMN were detected and quantified using the method described in Example 2.
as §2, with “of” for “of 50 uM LY294002 or”, “uM Papamycin” for “uM P1-103 respectively”, “Example x.” for “Example 2.”
A range of concentrations were tested in order not to miss the effects. SMN level were evaluated by Opera Evoteck in each cellular compartment and to assess the cell numbers that are summarized in the Table 3.
as §1, with “media. As previously described, starvation increases levels of constitutively activate GSK3b kinase, allowing to achieve a more dramatic inhibitory effect when GSK inhibitors are added together with growth factors that are also known to inhibit GSK by Ser-9 phosphorylation. […] For all compounds and growth factors control wells received solvent in amount equivalent to the highest concentration of the compound in a dose curve. For PDGF inhibitory studies, cells were pre-treated with kinase inhibitors for 2 hours and PDGF was added with a fresh kinase inhibitor solution and incubated for an additional 3 days.” for “media.”

Compound	levels of cytoplasmic and nuclear SMN (in words) (SMN [1])	SMN level in fibroblast screen (increase or decrease) (SMN [2])	also measured
N#CCCc1ccc2c(c1)-c1[nH]c3ccc([N+](=O)[O-])cc3c1CC(=O)N2	able to elevate SMN in patient fibroblasts	SMN is increase	
COc1cc2ncc(-c3ccccc3)nc2cc1OC [AG-1296]		decreased SMN	PDGF-stimulated SMN increase in presence of inhibitor (in words) (SMN [3]): sufficient to prevent PDGF effect on SMN; also recorded: abrogated; PDGF-stimulated SMN increase in presence of inhibitor (in words) (SMN [3]; listed as AG-1236): blocked; also recorded: abolished; decrease of basal level of SMN (SMN [1]; added to the regular serum media in which cells are maintained, no added PDGF): 20%
CNc1ccc2oc(C[C@H]3O[C@@]4(CC[C@H]3C)O[C@H]([C@H](C)C(=O)c3ccc[nH]3)[C@H](C)C[C@H]4C)nc2c1C(=O)O [Calcimycin]	elevation of SMN levels; also recorded: active in elevating the levels of SMN; also recorded: generally active	increase SMN	levels of cytoplasmic and nuclear SMN (in words) (SMN [1]; listed as A23187): active
C[C@H](CCC(=O)O)C[C@H](C)C[C@H](C)C(=O)/C=C(\O)[C@H](C)C[C@H](C)C/C=C/[C@@H](C)[C@@H](O)[C@@H](C)[C@@H](O)C[C@@H]1CC[C@@](C)([C@H]2CC[C@@](C)([C@@H](C)O)O2)O1 [Ionomycin]	increase in SMN levels; also recorded: active in elevating the levels of SMN; also recorded: able to increase SMN level	increase SMN	levels of cytoplasmic and nuclear SMN (in words) (SMN [1]; listed as ionomycin): elevation of SMN levels; also recorded: active
CC(=O)N[C@@H](CSC(=O)[C@]1([C@@H](O)C(C)C)NC(=O)[C@H](C)[C@@H]1O)C(=O)O [Lactacystin]	increase in SMN levels	increase SMN	effect on GEMs (number / intensity, in words) (SMN [1]; fibroblasts): mostly affected GEMs
Clc1ccc2ncnc(NCc3ccc4c(c3)OCO4)c2c1 [MBCQ]		increase SMN	
CC(C)C[C@@H](C=O)NC(=O)[C@H](CC(C)C)NC(=O)[C@H](CC(C)C)NC(=O)OCc1ccccc1 [MG-132] (Cbz-Leu-Leu-Leu-aldehyde)		increase SMN	
CC[C@@]1([C@@H]2O[C@@H]([C@H]3O[C@@](O)(CO)[C@H](C)C[C@@H]3C)C[C@@H]2C)CC[C@H]([C@]2(C)CC[C@]3(C[C@H](O)[C@@H](C)[C@@H]([C@@H](C)[C@@H](OC)[C@H](C)C(=O)O)O3)O2)O1 [Monensin Na]		increase SMN	fold increase in nuclear SMN (SMN [1]): 2 fold
O=C(Nc1ccc([N+](=O)[O-])cc1Cl)c1cc(Cl)ccc1O [Niclosamide]		SMN is increase	
C[C@@H]1O[C@@H](O[C@H]2C[C@@H](O)[C@]3(CO)[C@H]4[C@H](O)C[C@]5(C)[C@@H](C6=CC(=O)OC6)CC[C@]5(O)[C@@H]4CC[C@]3(O)C2)[C@H](O)[C@H](O)[C@H]1O [Ouabain]	increase in SMN levels	increase SMN	SMN level in fibroblast screen (increase or decrease) (SMN [2]; listed as ouabain): consistently emerged as hits
Oc1cccc(-c2nc(N3CCOCC3)c3oc4ncccc4c3n2)c1 [PI-103]		decreased SMN	PDGF-stimulated SMN increase in presence of inhibitor (in words) (SMN [3]): PDGF does not increase the levels of SMN; also recorded: able to prevent PDGF induced SMN increase in all cellular compartments; also recorded: completely abolished; PDGF-stimulated SMN increase in presence of inhibitor (in words) (SMN [3]; listed as P1-103): abrogated
Nc1ccc(-c2cccc3c(=O)cc(N4CCOCC4)oc23)cc1 [PI-828]		decreased SMN	
O=C1Nc2ccc3ncsc3c2C1=Cc1cnc[nH]1 [PKR inhibitor, 6,8-Dihydro-8-(1H-imidazol-5-ylmethylene)-7H-pyrrolo[2,3-g]benzothiazol-7-one]		SMN is increase	fold increase in cytoplasmic SMN (SMN [1]): 2 fold; fold increase in nuclear SMN (SMN [1]): 1.5 fold
O=C(CCCCCCC(=O)Nc1ccccc1)NO [SAHA, Suberoylanilide Hydroxamic Acid]	increase in SMN levels	increase SMN	effect on GEMs (number / intensity, in words) (SMN [1]; fibroblasts): increased GEM counts at the lower concentrations; nuclear SMN at the higher dosage (in words) (SMN [1]; fibroblasts, higher dosage): increased nuclear SMN predominantly
C/C=C(/C)C(=O)O[C@H]1C(C)=C2[C@H]([C@@H]1OC(=O)CCCCCCC)[C@@](C)(OC(C)=O)C[C@H](OC(=O)CCC)[C@@]1(O)[C@H]2OC(=O)[C@@]1(C)O [Thapsigargin]	active in elevating the levels of SMN; also recorded: generally active; also recorded: caused SMN upregulation	increase SMN	levels of cytoplasmic and nuclear SMN (in words) (SMN [1]; listed as thapsigagin): elevation of SMN levels
CC(C)[C@@H]1NC(=O)[C@H](C)OC(=O)[C@@H](C(C)C)NC(=O)[C@@H](C(C)C)OC(=O)[C@H](C(C)C)NC(=O)[C@H](C)OC(=O)[C@@H](C(C)C)NC(=O)[C@@H](C(C)C)OC(=O)[C@H](C(C)C)NC(=O)[C@H](C)OC(=O)[C@@H](C(C)C)NC(=O)[C@@H](C(C)C)OC1=O [Valinomycin]		increase SMN	
Cc1c(C(=O)c2cccc3ccccc23)c2cccc3c2n1[C@H](CN1CCOCC1)CO3 [WIN 55, 212-2]	increase in SMN levels	increase SMN	fold increase in cytoplasmic SMN (SMN [1]): 1.5 fold; fold increase in nuclear SMN (SMN [1]): 2 fold
Coumermycin A1		increase SMN	concentration at which SMN level was increased (SMN [2]; during screening): 10 µM
ceramide		increase SMN	
